Reference: patent US11085056B2, “Transfection complexes and methods of using the same” (MOLECULAR TRANSFER, INC., priority 2015, dated 2021)

What was measured:
some examined cell types = assay: Transfection expression and % cells transfected over the no peptide control; type: cell-based; conditions: on some examined cell types
Experimental: (§1) Cells were plated to so that on the day of transfection the cells were 60-70% confluent in 96 well tissue culture plates. A DOMTA/DOPE Lipid solution (1:1 molar ratio) at 2 mg/mL in water were mixed with an equal volume of surface ligand peptides that had the nucleic acid binding moiety RRRRRRRRRRRR (SEQ ID NO: 109) covalently linked to the n terminus of each peptide during peptide synthesis. Peptides were at 2 mg/mL in water. The DOTMA/DOPE and the surface ligand peptide solution the transfection reagent was diluted 1 to 1 (v/v) in water. DOMTA/DOPE/PEPTIDE solutions were added to 0.1 mL of a plasmid DNA solution (EF1Alpha eGFP plasmid) at 5 μg/mL in OptiMEM. Lipofectamine 2000 was obtained from Life Technologies.
(§2) All solutions were at room temperature. A volume of 0.2 mL of a 5 μg/mL solution of DNA was aliquoted into each well of a non-tissue cultured treated plate. 4.0 μL of transfection reagents were added to DNA solutions respectively. The transfection reagent and DNA solution was mixed by pipetting up and down twice. Transfection complexes were formed for 10 minutes. After 10 minutes, 0.01 or 0.02 mL of the transfection complex was added to cells. HuVEC, HeLa, human adult keratinocytes, human primary adult fibroblast, and rat cortical neurons all respectively received 0.01 mL of the tramsfectopm complex. Human skeletal muscle cells, mouse C2C12 cells, Jurkat, and THP-1 cells received 0.02 mL of the transfection complex. Cells were incubated for 42 hours at 37° C. at 5% CO2. Plates were read on a fluorescent plate reader. Cells were also examined visually under a microscope to assess the extent of transfection (in terms of the percent of cells transfected) with a fluorescent microscope. Other modes of analysis, for example quantification with B-galactosidase or luciferase reports plasmids can also be used. […] Surface ligand that caused increase expression of GFP over the lipid DOTMA with no surface ligand were considered to enhance transfection or had higher % cells transfected were considered to enhance transfection. Peptides that gave greater than 2 fold enhancement are noted in bold and could be further optimized by adding different transfection enhancers or could be used with different cationic lipids or polymers.

HeLa Cells [1] = assay: Transfection of HeLa cells with DOTMA/DOPE/peptide and eGFP plasmid, fluorescent plate reader; type: cell-based; conditions: DOTMA/DOPE 1:1 plus peptide with RRRRRRRRRRRR (SEQ ID NO: 109) at n terminus; EF1Alpha eGFP plasmid; 0.01 mL complex; 42 hours
Experimental: as §1, §2

Human Fibroblast Cells = assay: Transfection of human fibroblast cells with DOTMA/DOPE/peptide and eGFP plasmid, fluorescent plate reader; type: cell-based; conditions: DOTMA/DOPE 1:1 plus peptide with RRRRRRRRRRRR (SEQ ID NO: 109) at n terminus; EF1Alpha eGFP plasmid; 0.01 mL complex; 42 hours
Experimental: as §1, §2

Jurkat Cells = assay: Transfection of Jurkat cells with DOTMA/DOPE/peptide and eGFP plasmid, fluorescent plate reader; type: cell-based; conditions: DOTMA/DOPE 1:1 plus peptide with RRRRRRRRRRRR (SEQ ID NO: 109) at n terminus; EF1Alpha eGFP plasmid; 0.02 mL complex; 42 hours
Experimental: as §1, §2

HeLa Cells [2] = assay: Transfection of HeLa cells with DOTMA/SEQ ID NO: 72/peptide compared with Lipofectamine 2000; type: cell-based; conditions: fusogenic peptide 0.1 mg/mL
Experimental: as §1, §2
The fusogenic peptide was added to the DOMTA/peptide formulation to achieve a final concentration of 0.1 mg/mL to see if transfection reagents were further enhanced by the addition of a fusogenic peptide and could provide higher transfection efficiency into HeLa cells and expression than the commercially available Lipofectamine 2000.

C2C12 Cells = assay: Transfection of C2C12 cells with DOTMA/DOPE/peptide and eGFP plasmid, fluorescent plate reader; type: cell-based, mouse; conditions: DOTMA/DOPE 1:1 plus peptide with RRRRRRRRRRRR (SEQ ID NO: 109) at n terminus; EF1Alpha eGFP plasmid; 0.02 mL complex; 42 hours
Experimental: as §1, §2

NL-1 iPS Cells = assay: Transfection of NL-1 iPS cells with DOTMA/DOPE/peptide and eGFP plasmid, fluorescent plate reader; type: cell-based; conditions: DOTMA/DOPE 1:1 plus peptide with RRRRRRRRRRRR (SEQ ID NO: 109) at n terminus; EF1Alpha eGFP plasmid; 42 hours
Experimental: as §1, §2

HuVec Cells = assay: Transfection of HuVec cells with DOTMA/DOPE/peptide and eGFP plasmid, fluorescent plate reader; type: cell-based; conditions: DOTMA/DOPE 1:1 plus peptide with RRRRRRRRRRRR (SEQ ID NO: 109) at n terminus; EF1Alpha eGFP plasmid; 0.01 mL complex; 42 hours
Experimental: as §1, §2

[3] = 0.1 μL of DOTMA/SEQ ID NO: 72/Peptide in well of a 96 well plate
[4] = 0.2 μL of DOTMA/SEQ ID NO: 72/Peptide in well of a 96 well plate
[5] = 0.3 μL of DOTMA/SEQ ID NO: 72/Peptide in well of a 96 well plate
[6] = 0.4 μL of DOTMA/SEQ ID NO: 72/Peptide in well of a 96 well plate

Substance | transfection expression and the % cells transfected over the no peptide control (some examined cell types) | RF (Relative Fluorescence) of Transfection of HeLa Cells (HeLa Cells [1]) | RF (Relative Fluorescence) of Transfection of Human Fibroblast Cells (Human Fibroblast Cells) | RF (Relative Fluorescence) of Transfection of Jurkat Cells (Jurkat Cells) | RF (Relative Fluorescence), DOTMA/SEQ ID NO: 72/Peptide, HeLa Cells (HeLa Cells [2]; [3]) | RF (Relative Fluorescence), DOTMA/SEQ ID NO: 72/Peptide, HeLa Cells (HeLa Cells [2]; [4]) | RF (Relative Fluorescence), DOTMA/SEQ ID NO: 72/Peptide, HeLa Cells (HeLa Cells [2]; [5]) | RF (Relative Fluorescence), DOTMA/SEQ ID NO: 72/Peptide, HeLa Cells (HeLa Cells [2]; [6]) | RF (Relative Fluorescence) of Transfection of C2C12 Cells (C2C12 Cells) | RF (Relative Fluorescence) of Transfection of NL-1 iPS Cells (NL-1 iPS Cells) | RF (Relative Fluorescence) of Transfection of HuVec Cells (HuVec Cells)
347 (DLGTAGSCLRKFSTM; Peptidic transfection agent) [compound 347] | increased | 22527 | 9255 | 17720 | 23188 | 21493 | 16814 | 14140 | 4457 | 21865 | 20728
344 (KGHRGF; Peptidic transfection agent) [compound 344] | increased | 14415 | 12704 | 10160 | 13315 | 16387 | 12564 | 12511 | 1678 | 10895 | 11867
351 (LNRQELFPFG; Peptidic transfection agent) [compound 351] | increased | 12279 | 8061 | 9730 | 7678 | 11499 | 10575 | 8791 | 3530 | 24646 | 15379
268 (GGFLKYTVSYDI; Peptidic transfection agent) [compound 268] | increased | 25885 | 4568 | 3236 | 10162 | 9934 | 10792 | 9519 | 2568 | 15697 | 5403
503 (TAGSCLRKFSTMRRRRRRRRRRRR; Peptidic transfection agent) [compound 503] | increased | 25368 | 13085 | 9411 | 12827 | 20006 | 17101 | 16206 | 3973 | 19014 | 12123
326 (RLVSYSGVLFFLK; Peptidic transfection agent) [compound 326] | increased | 18946 | 3070 | 3018 | 6887 | 9487 | 10330 | 9227 | 8553 | 9239 | 4932
367 (TDIPPCPHGWISLWK; Peptidic transfection agent) [compound 367] | increased | 39008 | 10036 | 4365 | 10427 | 21411 | 23001 | 17529 | 16207 | 17545 | 13354
452 (CNYYSNSYSFWLASLNPER; Peptidic transfection agent) [compound 452] | increased | 13888 | 2779 | 2554 | 6276 | 12671 | 12047 | 10918 | 21798 | 10349 | 1841
323 (HQQDLGTAGSCLRKFSTMFLF; Peptidic transfection agent) [compound 323] | increased | 14067 | 4826 | 2900 | 15537 | 16620 | 10839 | 9244 | 7698 | 21694 | 12815
348 (HQQDLGTAGSCLRKFSTM; Peptidic transfection agent) [compound 348] | increased | 22289 | 11802 | 15585 | 17413 | 18615 | 16164 | 15054 | 8625 | 21645 | 21214
